Reference: patent US8106089B2, “Anti-tubulin acting arylpyrrol, arylfuran and arylthiophene derivatives, method for the preparation thereof and for the use thereof as an antimitotic” (Centre National de la Recherche, priority 2004, dated 2012)

Assays:
Assay type in all cases: cell-based
[1] = test system: mouse melanoma (B16) cells; assay: Cell cycle progression, flow cytometry after propidium iodide labeling; conditions: for % of B16 cells in phase G1 / % of B16 cells in phase G2/M / % of B16 cells in phase S: 24 hours
Description: (§1) In order to approach the mechanism of action of these compounds, we then studied their effect on the progression of the cell cycle in mouse melanoma (B16) cells and mouse leukemia (L1210) cells. For this purpose, we compared the distribution of the treated or untreated cells in each phase of the cycle. […] They then were fixed and made permeable with ethanol. After incubation with propidium iodide, which labels cellular DNA, the DNA content of the cells is then analyzed by flow cytometry.

[2] = test system: mouse leukemia (L1210) cells; assay: as above; conditions: 24 hours
Description: as §1

mel a melanocytes = assay: MTT test, cell growth; conditions: Mus musculus, Melanocyte, mean ± sd of 3 experiments in triplicate, read-out: IC50 (concentration that inhibits 50% of cell growth) ± sd
Text: (§2) Aim: Given the role of tubulin in the formation of the mitotic spindle, we analyzed the effect of the compounds according to the present invention on the cell cycle of the following murine cells using various methods: the murine melanoma tumor cell line, the B16 F1 cell line and the mel a cell line (melanocytes), and the L1210 mouse leukemia cell line.
(§3) We initially evaluated the effect of compounds 17, 18 and 19 on the growth of the three cell lines by a “MTT” test. The principle of the MTT test consists of measuring the activity of mitochondrial succinate dehydrogenase in living cells. This enzyme transforms MTT (3-(4,5-dimethylthiazol-2-yl)-2,5-diphenyltetrazolium bromide), yellow in color, into insoluble purple formazan crystals. After dissolution of the crystals in dimethylsulfoxide (DMSO), absorbance is measured at 540 nm by spectrophotometry. The optical densities obtained are directly proportional to the number of living cells. The cytotoxic effect of a sample is evaluated by the percentage of living cells in the presence of this sample, compared to the cells treated with the solvent alone. This method makes it possible to measure the proportion of living cells in a given cell population. By comparison with untreated cells, we thus determined the concentration of each compound that induces a 50% inhibition of cell growth. The IC50 ranges from 50 μM to 100 μM.

[3] = test system: L1210 mouse leukemia cells; assay: MTT test, cell growth; conditions: mean ± sd of 3 experiments in triplicate, read-out: IC50 (concentration that inhibits 50% of cell growth) ± sd
Text: as §2, §3

B16 F1 cells = assay: MTT test, cell growth; conditions: Mus musculus, mean ± sd of 3 experiments in triplicate, read-out: IC50 (concentration that inhibits 50% of cell growth) ± sd
Text: as §2, §3

SMILES | IC50 [3] [µM] | IC50 (B16 F1 cells) [µM] | % of B16 cells in phase G1 ([1]; 50 μM) [%] | % of B16 cells in phase G2/M ([1]; 50 μM) [%] | % of B16 cells in phase S ([1]; 50 μM) [%] | % of L1210 cells in phase G1 ([2]; 40 μM) [%] | % of L1210 cells in phase G2/M ([2]; 40 μM) [%] | % of L1210 cells in phase S ([2]; 40 μM) [%] | % of L1210 cells in phase G1 ([2]; 50 μM) [%] | % of L1210 cells in phase G2/M ([2]; 50 μM) [%] | % of L1210 cells in phase S ([2]; 50 μM) [%] | IC50 (mel a melanocytes) [µM] | % of B16 cells in phase G1 ([1]; 75 μM) [%] | % of B16 cells in phase G2/M ([1]; 75 μM) [%] | % of B16 cells in phase S ([1]; 75 μM) [%] | also measured
CC(C)c1cc(-c2ccccc2)c(CCCO)[nH]1 [Compound 18, 3-(5-Isopropyl-3-phenyl-1H-pyrrol-2-yl)-propan-1-ol] | 33.2 ± 1.3 | 171 ± 10.8 | – | – | – | 32.7 | 12.6 | 54.7 | – | – | – | – | 65.0 | 12.1 | 11.3 | % of B16 cells in phase G1 ([1]; 125 μM): 50.0%; % of B16 cells in phase G2/M ([1]; 125 μM): 32.0%; % of B16 cells in phase S ([1]; 125 μM): 5.2%; % of B16 cells in phase G1 ([1]; 150 μM): 42.1%; % of B16 cells in phase G2/M ([1]; 150 μM): 36.0%; % of B16 cells in phase S ([1]; 150 μM): 21.8%; % of L1210 cells in phase G1 ([2]; 55 μM): 30.9%; % of L1210 cells in phase G2/M ([2]; 55 μM): 21.9%; % of L1210 cells in phase S ([2]; 55 μM): 47.2%
CC(C)c1cc(-c2ccccc2N)c(CCCO)[nH]1 [Compound 19, 3-[3-(2-Amino-phenyl)-5-isopropyl-1H-pyrrol-2-yl]-propan-1-ol] | 17.7 ± 4.5 | 107 ± 1.8 | 78.7 | 5.2 | 14.1 | – | – | – | 49.5 | 24 | 26.5 | 116 ± 3.2 | 56.1 | 31.9 | 2.8 | % of L1210 cells in phase G1 ([2]; 75 μM): 39.8%; % of L1210 cells in phase G2/M ([2]; 75 μM): 38.8%; % of L1210 cells in phase S ([2]; 75 μM): 21.4%
CC(C)[C@@H](C=O)NC(=O)OC(C)(C)C [compound 2, (S)—N-(tert-Butoxycarbonyl)valinal] | – | – | – | – | – | – | – | – | – | – | – | – | – | – | – | higher proportion of cells in phase G2/M versus control ([1]; concentrations near IC50 or higher, cell line not stated): approximately 3 times

Further lines, with some results ahead:

IC50 [3] [µM] | IC50 (B16 F1 cells) [µM] | SMILES | % of B16 cells in phase G1 ([1]; 50 μM) [%] | % of B16 cells in phase G2/M ([1]; 50 μM) [%] | % of B16 cells in phase S ([1]; 50 μM) [%] | % of L1210 cells in phase G1 ([2]; 40 μM) [%] | % of L1210 cells in phase G2/M ([2]; 40 μM) [%] | % of L1210 cells in phase S ([2]; 40 μM) [%] | % of L1210 cells in phase G1 ([2]; 50 μM) [%] | % of L1210 cells in phase G2/M ([2]; 50 μM) [%] | % of L1210 cells in phase S ([2]; 50 μM) [%] | IC50 (mel a melanocytes) [µM] | % of B16 cells in phase G1 ([1]; 75 μM) [%] | % of B16 cells in phase G2/M ([1]; 75 μM) [%] | % of B16 cells in phase S ([1]; 75 μM) [%] | also measured
53.7 ± 0.7 | 88.7 ± 7.6 | CC(C)c1cc(-c2ccccc2N)c(CCCO)n1C(=O)OC(C)(C)C [Compound 17, 3-(2-Amino-phenyl)-2-(3-hydroxy-propyl)-5-isopropyl-pyrrole-1-carboxylic acid tert-butyl ester] | 58.0 | 25.4 | 16.6 | 54.9 | 23.2 | 21.9 | 39.2 | 43.6 | 17.2 | 69.7 ± 0.9 | – | – | – | % of B16 cells in phase G1 ([1]; 70 μM): 40.8%; % of B16 cells in phase G2/M ([1]; 70 μM): 22.3%; % of B16 cells in phase S ([1]; 70 μM): 37%; % of B16 cells in phase G1 ([1]; 100 μM): 43.3%; % of B16 cells in phase G2/M ([1]; 100 μM): 16.5%; % of B16 cells in phase S ([1]; 100 μM): 40.3%
> 400 | > 400 | CC(C)c1ccc(CCCO)[nH]1 [Compound 21, 3-(5-Isopropyl-1H-pyrrol-2-yl)-propan-1-ol] | – | – | – | – | – | – | – | – | – | – | – | – | – | –
